Consider one compound from ChEMBL document CHEMBL5042472, “Design, Synthesis, and Biological Evaluation of a Novel Photocaged PI3K Inhibitor toward Precise Cancer Treatment” (J Med Chem, 2021).

Data set [1] relates to HGC-27. Put plainly: Induction of cell cycle arrest in human HGC-27 cells assessed as accumulation at G0/G1 phase at 100 nM irradiated with 365 nm UV light for 5 mins and incubated for 24 hrs by flow cytometry. It is filed as functional, cell-based. (A flow cytometer gives signals particle by particle.)
The subject of another data set is BGC-823. Put plainly: Antiproliferative activity against human BGC-823 cells assessed as reduction in cell viability irradiated with 365 nm of UV for 5 mins and incubated in dark for 96 hrs by MTT assay. In kind it is functional, cell-based. The note with it: BGC-823, light or radiation study.
Data set [2] has as its system HCT-116. Put plainly: Inhibition of colony formation in human HCT-116 cells irradiated with 365 nm of UV light for 5 min at 100 nM incubated for 24 hrs by crystal violet staining based assay. In kind it is functional, cell-based.
For data set [3], the system named is HCT-116. Briefly: Anticancer activity against fluorescent labeled human HCT-116 cells xenografted in yolk of zebra embryo assessed as reduction in tumor size by measuring fluorescence density at 31.3 nM irradiated with 365 nm of UV light incubated for 48 hrs by fluorescence microscopic analysis. In kind it is functional, cell-based. On the technique in general: In xenograft studies the graft and the host belong to different species.

Data set [4] is described as follows: Apparent permeability across apical to basolateral side in human Caco-2 cells at 10 uM incubated for 2 hrs by LC-MS/MS analysis. It is filed as ADME, cell-based. (Caco-2 cells form a polarised layer with tight junctions and transporters.)
For data set [5], the system named is HGC-27. Put plainly: Antiproliferative activity against human HGC-27 cells assessed as reduction in cell viability incubated in dark for 96 hrs by MTT assay. Conditions: HGC-27, 96 h. It is filed as functional, cell-based.
Data set [6] has as its target Phosphatidylinositol 4,5-bisphosphate 3-kinase catalytic subunit alpha isoform (Homo sapiens, UniProt P42336). Briefly: Inhibition of PI3K alpha (unknown origin) using PIP2 as substrate irradiated with 365 nm of UV exposure for 2 mins and incubation in dark at room temperature for 1 hr in presence of ATP measured by ADP-Glo luminescent assay.
The subject of data set [7] is HCT-116. Put plainly: Induction of cell cycle arrest in human HCT-116 cells assessed as accumulation at G0/G1 phase at 100 nM irradiated with 365 nm UV light for 5 mins incubated for 24 hrs by flow cytometry. In kind it is functional, cell-based.
Data set [8] has as its system HCT-116. Put plainly: Inhibition of PI3K/AKT signalling pathway in human HCT-116 cells assessed as downregulation of AKT phosphorylation at Ser473 residue at 100 nM incubated for 24 hrs under dark condition by Western blot. In kind it is cell-based.
In data set [9] the test system is HGC-27. Put plainly: Inhibition of PI3K/AKT signalling pathway in human HGC-27 cells assessed as downregulation of AKT phosphorylation at Ser473 residue at 100 nM irradiated with 365 nm UV light for 5 mins and incubated for 24 hrs by Western blot. It is filed as cell-based.
Data set [10] deals with HGC-27. Briefly: Inhibition of PI3K/AKT signalling pathway in human HGC-27 cells assessed as downregulation of SRP6 phosphorylation at 100 nM incubated for 24 hrs under dark condition by Western blot. It is filed as cell-based.
Data set [11] is filed under the species Homo sapiens. Briefly: Anticancer activity against KOCO-096 patient derived colon cancer organoid assessed as inhibition of cell growth irradiated with 365 nm of UV light for 2 mins and incubated for 120 hrs. It is filed as functional, tissue-based.
Data set [12] is filed under the species Homo sapiens. Briefly: Anticancer activity against KOCO-096 patient derived colon cancer organoid assessed as inhibition of cell growth irradiated with 365 nm of UV light for 5 mins and incubated for 120 hrs. In kind it is functional, tissue-based.
The test system of data set [13] is HCT-116. Put plainly: Inhibition of PI3K/AKT signalling pathway in human HCT-116 cells assessed as downregulation of AKT phosphorylation at […] residue at 100 nM incubated for 24 hrs under dark condition by Western blot. In kind it is cell-based.
A short description of data set [14]: Stability in dog plasma assessed as half life at 1 uM measured upto 120 min by LC-MS/MS analysis. It is filed as ADME, cell-free, Canis lupus familiaris.
Data set [15] deals with HGC-27. Put plainly: Inhibition of PI3K/AKT signalling pathway in human HGC-27 cells assessed as downregulation of AKT phosphorylation at Ser473 residue at 100 nM incubated for 24 hrs under dark condition by Western blot. It is filed as cell-based.
For data set [16], the system named is HGC-27. Briefly: Inhibition of PI3K/AKT signalling pathway in human HGC-27 cells assessed as downregulation of AKT phosphorylation at […] residue at 100 nM incubated for 24 hrs under dark condition by Western blot. In kind it is cell-based.
Data set [17] deals with HCT-116. Put plainly: Inhibition of PI3K/AKT signalling pathway in human HCT-116 cells assessed as downregulation of […] phosphorylation at 100 nM irradiated with 365 nm UV light for 5 mins and incubated for 24 hrs by Western blot. In kind it is cell-based.
Data set [18] is described as follows: Stability of the compound in dark condition at room temperature after 6 month. It is filed as physicochemical. Conditions: 4380 h; time 6 months.
The subject of another data set is MG-63. Put plainly: Antiproliferative activity against human MG-63 cells assessed as reduction in cell viability incubated in dark for 96 hrs by MTT assay. It is filed as functional, cell-based. Conditions: MG-63, 96 h.
The subject of data set [19] is HGC-27. Briefly: Inhibition of PI3K/AKT signalling pathway in human HGC-27 cells assessed as downregulation of AKT phosphorylation at […] residue at 100 nM irradiated with 365 nm UV light for 5 mins and incubated for 24 hrs by Western blot. In kind it is cell-based.
A short description of data set [20]: Stability in rat liver microsomes assessed as half life at 1 uM in presence of NADPH by LC-MS/MS analysis. It is filed as ADME, Microsome.
Data set [21] is described as follows: Stability in rat plasma assessed as half life at 1 uM measured upto 120 min by LC-MS/MS analysis. It is filed as ADME, cell-free.

Calls of active or inactive are those of the source. The rule behind the calls is not given here.

Chain of Phosphatidylinositol 4,5-bisphosphate 3-kinase catalytic subunit alpha isoform (P42336 whole entry, canonical isoform): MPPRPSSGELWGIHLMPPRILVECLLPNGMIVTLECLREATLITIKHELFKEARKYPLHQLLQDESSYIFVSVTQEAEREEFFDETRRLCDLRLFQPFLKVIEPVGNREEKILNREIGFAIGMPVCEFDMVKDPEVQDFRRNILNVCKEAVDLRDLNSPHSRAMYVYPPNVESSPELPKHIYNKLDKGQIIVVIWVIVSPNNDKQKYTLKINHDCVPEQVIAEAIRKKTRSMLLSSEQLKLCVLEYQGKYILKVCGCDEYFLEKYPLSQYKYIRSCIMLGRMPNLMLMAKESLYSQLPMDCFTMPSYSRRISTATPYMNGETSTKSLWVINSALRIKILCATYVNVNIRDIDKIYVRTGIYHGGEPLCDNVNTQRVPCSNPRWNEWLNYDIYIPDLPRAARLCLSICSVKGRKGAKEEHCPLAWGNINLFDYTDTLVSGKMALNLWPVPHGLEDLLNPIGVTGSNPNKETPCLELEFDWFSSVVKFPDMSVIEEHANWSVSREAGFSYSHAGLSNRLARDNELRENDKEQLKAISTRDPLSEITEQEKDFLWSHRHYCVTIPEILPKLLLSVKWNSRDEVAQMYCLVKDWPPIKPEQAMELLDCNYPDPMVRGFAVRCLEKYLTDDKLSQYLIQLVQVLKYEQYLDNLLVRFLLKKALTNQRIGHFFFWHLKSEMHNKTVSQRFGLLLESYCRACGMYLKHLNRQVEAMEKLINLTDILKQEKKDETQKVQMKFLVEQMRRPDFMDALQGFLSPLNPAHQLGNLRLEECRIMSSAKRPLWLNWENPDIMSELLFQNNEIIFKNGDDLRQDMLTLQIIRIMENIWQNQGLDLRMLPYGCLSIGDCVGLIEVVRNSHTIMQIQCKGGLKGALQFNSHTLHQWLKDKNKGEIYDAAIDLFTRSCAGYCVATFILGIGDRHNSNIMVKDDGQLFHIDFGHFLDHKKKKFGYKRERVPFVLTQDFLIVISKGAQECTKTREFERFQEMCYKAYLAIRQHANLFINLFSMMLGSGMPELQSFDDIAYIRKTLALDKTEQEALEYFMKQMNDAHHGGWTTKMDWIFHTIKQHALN

Regarding `COc1cc(CN(c2cc(-c3cc(OC4CCOCC4)c4ncnc(C)c4c3)cnc2OC)S(=O)(=O)c2ccc(F)cc2F)c([N+](=O)[O-])cc1OC`, the outcome in the data set on HGC-27 [1], with HCT-116 [3] and in the data set listed under Homo sapiens [11] was Active. Further, the half-inhibitory concentration (IC50) (in general, the concentration at which inhibition is half-maximal) is 103 nM with BGC-823, 248 nM in the data set with HGC-27 [5], 0.58 nM in [6] and 1840 nM with MG-63. For the same compound, the inhibition entry with HCT-116 [2], in the data set on HGC-27 [9], in the data set on HCT-116 [17] and with HGC-27 [19] was “Active” throughout. In addition, the Papp A→B (in general, how fast a substance crosses the layer from the apical side) at 2 h, 10 µM in data set [4] came to 0.49 ×10⁻⁶ cm/s. In the data set on HCT-116 [7], the outcome was inactive. The inhibition entry in the data set with HCT-116 [8], in the data set with HGC-27 [10], in the data set with HCT-116 [13], in the data set with HGC-27 [15] and in the data set on HGC-27 [16] was “inactive” each time. Further, the Activity entry in the data set listed under Homo sapiens [12] was “Dose-Dependent Effect”. The half-life (as a rule, how long it takes for the measured level to halve) at 1 µM in data set [14] is over 2 h; in data set [20], 1.82 min; in data set [21], over 2 h. The Stability entry in [18] is “Stable”.
